From patent publication US11969402B2, “Compositions and methods for skin rejuvenation” (THE JOHNS HOPKINS UNIVERSITY, priority 2019, dated 2024)

Test system: wound beds
Test: Immunostaining of healing wounds
Format: in vivo, mouse
Settings: Tlr3−/− mice
Experimental: Wound Induced Hair Neogenesis (WIHN). All experiments were followed with the present inventors' WIHN protocol^1,9. Briefly, hair was shaved and a 1.2 cm^2 full-thickness skin on the backs of 21-day old (telogen) male and female mice was removed by sterile scissors. A single treatment of RA (30 μl) (0.1 μg per mouse) (Millipore Sigma, R2625) and BMS493 (30 μl) (0.1 μg per mouse) (Cayman Chemical, #17418) was applied topically onto open wound on WD1 of Tlr3^−/− and WT mice, respectively. Poly (I:C) (50 μl) (5 μg per mouse) (Invivogen, tlrl-pic) was injected under the healed scab on WD3 of WT mice as described before^9,34. On WD20-24, numbers of regenerated hair follicles were visualized and quantified in the re-epithelialized skin by non-invasive confocal scanning laser microscopy (CSLM) (Caliber I.D., VIVASCOPE 1500) as published^1,9. As a vehicle (Control), ethanol (EtOH), dimethylsulfoxide (DMSO), or PBS was treated for RA, BMS493, and Poly (I:C), respectively.
Immunofluorescence. […] Fluorescence images were observed by fluorescence microscopy (Leica microsystems), taken pictures with ×100 (low magnification) and ×200 (high magnification), and saved as image files.

SMILES: CC1=C(/C=C/C(C)=C/C=C/C(C)=C/C(=O)O)C(C)(C)CCC1 [RA, all-trans-retinoic acid]
- Krt15 immunostaining in wounds: induces prominent Krt15
